We go through 27 compounds from patent US9693997B2, “Antiviral compounds” (priority 2013, dated 2017).

Structures can show the parent of a compound that is named as a salt. Where two headings read alike, the source gives them in different places. Some results are limits rather than exact numbers.

Experiment [1] concerns Pseudotyped HCV GT1b particles (HCVpp), entry into Huh7-high CD81 cells. Description: microbe, parasite or virus in culture. In kind it is cell-based, HCV GT1b Con1 strain.
The subject of experiment [2] is pseudotyped VSV G particles (VSVpp) in Huh7-high CD81 cells. Description: microbe, parasite or virus in culture. In kind it is cell-based, vesicular stomatitis virus.
Where [3] appears, read: Hepatitis C virus, GT1B, 72 h, read-out: HCVpp GT-1b (EC50, μM).
[4] abbreviates: Vesicular stomatitis virus, 72 h, read-out: VSVpp (EC50, μM).

A word on the EC50: it is the concentration that produces a half-maximal response. Regarding `CC(C)(C)CCN1CCCC(CS(=O)(=O)c2ccc(-c3c(Cl)cc(Nc4n[nH]c(N)n4)cc3C(F)(F)F)cc2)C1` (stereo not drawn) [Compound 56, N*3*-{2-Chloro-4′-[1-(3,3-dimethyl-butyl)-piperidin-3-ylmethanesulfonyl]-6-trifluoromethyl-biphenyl-4-yl}-1H-[1,2,4]triazole-3,5-diamine; hydrochloride], the EC50 in experiment [1] (setting [3]) came to 0.046 µM; in experiment [2] (setting [4]) it was 3.74 µM.
As for `Nc1nc(Nc2cc(Cl)c(-c3ccc(S(N)(=O)=O)cc3)c(C(F)(F)F)c2)n[nH]1` [Compound 171, 4′-(5-amino-1H-1,2,4-triazol-3-ylamino)-2′-chloro-6′-(trifluoromethyl)biphenyl-4-sulfonamide], the values for the EC50 in experiment [1] (setting [3]) and in experiment [2] (setting [4]) were 0.028 µM and 5.23 µM, respectively.
For `CC(C)(C)OC(=O)COc1ccc(-c2c(Cl)cc(Nc3n[nH]c(N)n3)cc2Cl)cc1` [Compound 276, [4′-(5-Amino-1H-[1,2,4]triazol-3-ylamino)-2′,6′-dichloro-biphenyl-4-yloxy]-acetic acid tert-butyl ester], in that order: 0.168 µM and greater than 10 µM.
For `Nc1ccc(-c2c(Cl)cc(Nc3n[nH]c(N)n3)cc2Cl)cc1` [Compound 50, N*3*-(4′-Amino-2,6-dichloro-biphenyl-4-yl)-1H-[1,2,4]triazole-3,5-diamine], in that order: 0.689 µM and greater than 10 µM.
As to `CC(C)(C)OC(=O)N1CCCC(Oc2ccc(-c3c(Cl)cc(Nc4n[nH]c(N)n4)cc3C(F)(F)F)cc2)C1` (stereo not drawn) [Compound 129, 3-[4′-(5-Amino-1H-[1,2,4]triazol-3-ylamino)-6′-chloro-2′-trifluoromethyl-biphenyl-4-yloxy]-piperidine-1-carboxylic acid tert-butyl ester], the results for the EC50 in experiment [1] (setting [3]) and in experiment [2] (setting [4]) were 0.017 µM and 9.62 µM, respectively.
The matching figures for `CN(C)S(=O)(=O)c1cccc(-c2c(Cl)cc(Nc3n[nH]c(N)n3)cc2C(F)(F)F)c1` [Compound 198, 4′-(5-amino-1H-1,2,4-triazol-3-ylamino)-2′-chloro-N,N-dimethyl-6′-(trifluoromethyl)biphenyl-3-sulfonamide]: 0.268 µM and 21.3 µM.
For `CC(C)(NS(=O)(=O)c1ccc(-c2c(Cl)cc(Nc3n[nH]c(N)n3)cc2C(F)(F)F)cc1)C(F)(F)F` [Compound 165, 4′-(5-amino-1H-1,2,4-triazol-3-ylamino)-2′-chloro-N-(1,1,1-trifluoro-2-methylpropan-2-yl)-6′-(trifluoromethyl)biphenyl-4-sulfonamide], the EC50 in experiment [1] (setting [3]) is 0.009 µM; in experiment [2] (setting [4]), greater than 10 µM.
The matching figures for `Nc1nc(Nc2cc(Cl)c(-c3ccc(S(=O)(=O)C4CCNCC4)cc3)c(C(F)(F)F)c2)n[nH]1` [Compound 20, N3-(2-chloro-4′-(piperidin-4-ylsulfonyl)-6-(trifluoromethyl)biphenyl-4-yl)-1H-1,2,4-triazole-3,5-diamine hydrochloride]: 0.053 µM and 3.46 µM.
For `Nc1nc(Nc2cc(Cl)c(-c3ccc(OC4CCN(CCC(F)(F)F)CC4)cc3)c(C(F)(F)F)c2)n[nH]1` [Compound 140, N*3*-{6-Chloro-2-trifluoromethyl-4′-[1-(3,3,3-trifluoro-propyl)-piperidin-4-yloxy]-biphenyl-4-yl}-1H-[1,2,4]triazole-3,5-diamine hydrochloride], in that order: 0.111 µM and greater than 10 µM.
The matching figures for `Nc1nc(Nc2cc(Cl)c(-c3ccc(N4CCCC4=O)cc3)c(Cl)c2)n[nH]1` [Compound 43, 1-[4′-(5-Amino-1H-[1,2,4]triazol-3-ylamino)-2′,6′-dichloro-biphenyl-4-yl]-pyrrolidin-2-one]: 0.169 µM and 15.4 µM.
For “[4′-(5-amino-1H-[1,2,4]triazol-3-ylamino)-2′-chloro-6′-trifluoromethyl-biphenyl-4-yl]-carbamic acid propyl ester [Compound 238]”, the EC50 in experiment [1] (read-out: HCVpp GT-1b (EC50)) was 0.078 µM; in experiment [2] (read-out: VSVpp (EC50)), 24.9 µM.
Regarding `Nc1nc(Nc2cc(Cl)c(-c3ccc(OC4CCCN(CCC(F)(F)F)C4)cc3)c(C(F)(F)F)c2)n[nH]1` (stereo not drawn) [Compound 133, N*3*-{6-Chloro-2-trifluoromethyl-4′-[1-(3,3,3-trifluoro-propyl)-piperidin-3-yloxy]-biphenyl-4-yl}-1H-[1,2,4]triazole-3,5-diamine hydrochloride], the figures for the EC50 in experiment [1] (setting [3]) and in experiment [2] (setting [4]) were 0.13 µM and greater than 10 µM, respectively.
The matching figures for `Nc1nc(Nc2cc(Cl)c(-c3ccc(OCC(O)CO)cc3)c(Cl)c2)n[nH]1` (stereo not drawn) [Compound 282, 3-[4′-(5-Amino-1H-[1,2,4]triazol-3-ylamino)-2′,6′-dichloro-biphenyl-4-yloxy]-propane-1,2-diol-diamine]: 0.213 µM and 39.7 µM.
The matching figures for `Nc1nc(Nc2cc(Cl)c(-c3ccc(OC4CCCNC4)cc3)c(C(F)(F)F)c2)n[nH]1` (stereo not drawn) [Compound 130, N*3*-[6-Chloro-4′-(piperidin-3-yloxy)-2-trifluoromethyl-biphenyl-4-yl]-1H-[1,2,4]triazole-3,5-diamine hydrochloride]: 0.055 µM and 8.67 µM.
For `Nc1nc(Nc2cc(Cl)c(-c3ccc(OCCN4CCOCC4)cc3)c(Cl)c2)n[nH]1` [Compound 281, N*3*-[2,6-Dichloro-4′-(2-morpholin-4-yl-ethoxy)-biphenyl-4-yl]-1H-[1,2,4]triazole-3,5-diamine], in that order: 0.244 µM and 23.4 µM.
Turning to `COCCOc1ccc(-c2c(Cl)cc(Nc3n[nH]c(N)n3)cc2Cl)cc1` [Compound 278, N*3*-[2,6-Dichloro-4′-(2-methoxy-ethoxy)-biphenyl-4-yl]-1H-[1,2,4]triazole-3,5-diamine], the EC50 in experiment [1] (setting [3]) was 0.264 µM; in experiment [2] (setting [4]) it was 5.31 µM.
As to “4′-(5-amino-1H-1,2,4-triazol-3-ylamino)-2′-chloro-3-methoxy-N-(piperidin-4-yl)-6′-(trifluoromethyl)biphenyl-4-sulfonamide hydrochloride [Compound 178]”, the concentration for a half-maximal effect (EC50) was 0.023 µM in experiment [1] (read-out: HCVpp GT-1b (EC50)) and greater than 10 µM in experiment [2] (read-out: VSVpp (EC50)).
As to `C[C@H](NS(C)(=O)=O)c1ccc(-c2c(Cl)cc(Nc3n[nH]c(N)n3)cc2C(F)(F)F)cc1` [Compound 13, N—{(S)-1-[4′-(5-Amino-1H-[1,2,4]triazol-3-ylamino)-2′-chloro-6′-trifluoromethyl-biphenyl-4-yl]-ethyl}-methanesulfonamide], the EC50 in experiment [1] (setting [3]) worked out at 0.027 µM; in experiment [2] (setting [4]), 21 µM.
The matching figures for `CC(C)(C)OC(=O)N1CCC(CS(=O)(=O)c2ccc(-c3c(Cl)cc(Nc4n[nH]c(N)n4)cc3C(F)(F)F)cc2)CC1` [Compound 7, 4-[4′-(5-Amino-1H-[1,2,4]triazol-3-ylamino)-2′-chloro-6′-trifluoromethyl-biphenyl-4-sulfonylmethyl]-piperidine-1-carboxylic acid tert-butyl ester]: 0.017 µM and 3.09 µM.
The matching figures for `CC(C)(C)CCN1CCC(CS(=O)(=O)c2ccc(-c3c(Cl)cc(Nc4n[nH]c(N)n4)cc3C(F)(F)F)cc2)CC1` [Compound 57, N*3*-{2-Chloro-4′-[1-(3,3-dimethyl-butyl)-piperidin-4-ylmethanesulfonyl]-6-trifluoromethyl-biphenyl-4-yl}-1H-[1,2,4]triazole-3,5-diamine; hydrochloride]: 0.049 µM and 2.45 µM.
For `Nc1nc(Nc2cc(Cl)c(-c3ccc(S(=O)(=O)N4CC(F)(F)C4)cc3)c(C(F)(F)F)c2)n[nH]1` [Compound 224, N*3*-[6-Chloro-4′-(3,3-difluoro-azetidine-1-sulfonyl)-2-trifluoromethyl-biphenyl-4-yl]-1H-[1,2,4]triazole-3,5-diamine], in that order: 0.02 µM and 4.57 µM.
Turning to `CNCCOc1ccc(-c2c(Cl)cc(Nc3n[nH]c(N)n3)cc2C(F)(F)F)cc1` [Compound 126, N*3*-[6-Chloro-4′-(2-methylamino-ethoxy)-2-trifluoromethyl-biphenyl-4-yl]-1H-[1,2,4]triazole-3,5-diamine hydrochloride], the figures for the 50% effective concentration (EC50) in experiment [1] (setting [3]) and in experiment [2] (setting [4]) were 0.088 µM and greater than 10 µM, respectively.
For `Nc1nc(Nc2cc(Cl)c(-c3ccc(S(=O)(=O)NCCO)cc3)c(Cl)c2)n[nH]1` [Compound 160, 4′-(5-Amino-1H-[1,2,4]triazol-3-ylamino)-2′,6′-dichloro-biphenyl-4-sulfonic acid (2-hydroxy-ethyl)-amide], the EC50 in experiment [1] (setting [3]) stood at 0.063 µM; in experiment [2] (setting [4]), 10.6 µM.
For `Nc1nc(Nc2cc(Cl)c(-c3ccc(OCC4CNC4)cc3)c(C(F)(F)F)c2)n[nH]1` [Compound 37, N*3*-[4′-(Azetidin-3-ylmethoxy)-2-chloro-6-trifluoromethyl-biphenyl-4-yl]-1H-[1,2,4]triazole-3,5-diamine; hydrochloride], in that order: 0.107 µM and greater than 10 µM.
Take `N#Cc1cccc(-c2c(F)cc(Nc3nc(N)n[nH]3)cc2C(F)(F)F)c1` [Compound 89, 4′-(5-Amino-2H-[1,2,4]-triazol-3-ylamino)-6′-fluoro-2′-trifluoromethyl-biphenyl-3-carbonitrile]: the EC50 stood at 25.1 µM in experiment [1] (setting [3]) and 33.3 µM in experiment [2] (setting [4]).
For `Nc1nc(Nc2cc(Cl)c(-c3cccc(C(F)(F)F)c3)c(Cl)c2)n[nH]1` [Compound 108, N-3-(2,6-Dichloro-3′-trifluoromethyl-biphenyl-4-yl)-1H-[1,2,4]triazole-3,5-diamine], in that order: 0.014 µM and 29 µM.
For the compound `Nc1nc(Nc2cc(Cl)c(-c3ccc(S(=O)(=O)C4CCCNC4)cc3)c(C(F)(F)F)c2)n[nH]1` (stereo not drawn) [Compound 29, N*3*-[2-Chloro-4′-(piperidine-3-sulfonyl)-6-trifluoromethyl-biphenyl-4-yl]-1H-[1,2,4]triazole-3,5-diamine; hydrochloride], the 50% effective concentration (EC50) in experiment [1] (setting [3]) was 0.09 µM; in experiment [2] (setting [4]), 3.53 µM.
